Laboratory results: PubChem BioAssay AID2060893 (Molecular Pharmacology Branch, DTP, NCI, 2025)

Test system: K86415-001-R-J1-PDC complex spheroids, viability
Experiment: Anticancer human tumor K86415-001-R-J1-PDC patient-derived lung adenocarcinoma cell line growth inhibition [RAS]
Conditions: for IC50: curve of first compound; for viability, T/C: stronger effect = lower value
In short: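 Tumour cells grown as complex spheroids with HUVEC endothelial cells and mesenchymal stem cells, treated with RAS pathway inhibitor combinations. Each agent spans half-log steps from near clinical Cmax, or 10 microM where Cmax is unknown.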

[1] = second compound 0.0316 µM, first compound 0.0316 µM
[2] = second compound 0.0316 µM, first compound 0.1 µM
[3] = second compound 0.0316 µM, first compound 0.316 µM
[4] = second compound 0.0316 µM, first compound 1 µM
[5] = second compound 0.0316 µM, first compound 3.16 µM
[6] = second compound 0.0316 µM, first compound 10 µM
[7] = second compound 0.1 µM, first compound 0.0316 µM
[8] = second compound 0.1 µM, first compound 0.1 µM
[9] = second compound 0.1 µM, first compound 0.316 µM
[10] = second compound 0.1 µM, first compound 1 µM
[11] = second compound 0.1 µM, first compound 3.16 µM
[12] = second compound 0.1 µM, first compound 10 µM
[13] = second compound 0.316 µM, first compound 0.0316 µM
[14] = second compound 0.316 µM, first compound 0.1 µM
[15] = second compound 0.316 µM, first compound 0.316 µM
[16] = second compound 0.316 µM, first compound 1 µM
[17] = second compound 0.316 µM, first compound 3.16 µM
[18] = second compound 0.316 µM, first compound 10 µM
[19] = second compound 1 µM, first compound 0.0316 µM
[20] = second compound 1 µM, first compound 0.1 µM
[21] = second compound 1 µM, first compound 0.316 µM
[22] = second compound 1 µM, first compound 1 µM
[23] = second compound 1 µM, first compound 3.16 µM
[24] = second compound 1 µM, first compound 10 µM
[25] = second compound 3.16 µM, first compound 0.0316 µM
[26] = second compound 3.16 µM, first compound 0.1 µM
[27] = second compound 3.16 µM, first compound 0.316 µM
[28] = second compound 3.16 µM, first compound 1 µM
[29] = second compound 3.16 µM, first compound 3.16 µM
[30] = second compound 3.16 µM, first compound 10 µM
[31] = second compound 10 µM, first compound 0.0316 µM
[32] = second compound 10 µM, first compound 0.1 µM
[33] = second compound 10 µM, first compound 0.316 µM
[34] = second compound 10 µM, first compound 1 µM
[35] = second compound 10 µM, first compound 3.16 µM
[36] = second compound 10 µM, first compound 10 µM
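Note: spheroids exposed to agents for seven days before readout.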

CC(=O)OC12COC1CC(O)C1(C)C(=O)C(O)C3=C(C)C(OC(=O)C(O)C(NC(=O)OC(C)(C)C)c4ccccc4)CC(O)(C(OC(=O)c4ccccc4)C21)C3(C)C (stereo not given) + C#Cc1c(F)ccc2cc(O)cc(-c3ncc4c(N5CC6CCC(C5)N6)nc(OCC56CCCN5CC(F)C6)nc4c3F)c12
IC50 (second compound 0.0316 µM): < 31.6 nM | IC50 (second compound 0.1 µM): < 31.6 nM | IC50 (second compound 0.316 µM): < 31.6 nM | IC50 (second compound 1 µM): < 31.6 nM | IC50 (second compound 3.16 µM): < 31.6 nM | IC50 (second compound 10 µM): < 31.6 nM | viability, T/C [1]: 29.3% | viability, T/C [2]: 30.7% | viability, T/C [3]: 32.6% | viability, T/C [4]: 30.9% | viability, T/C [5]: 37.5% | viability, T/C [6]: 35.7% | viability, T/C [7]: 30.8% | viability, T/C [8]: 34.4% | viability, T/C [9]: 28.6% | viability, T/C [10]: 32% | viability, T/C [11]: 26.8% | viability, T/C [12]: 37% | viability, T/C [13]: 32.2% | viability, T/C [14]: 29.9% | viability, T/C [15]: 27.4% | viability, T/C [16]: 28.9% | viability, T/C [17]: 29.2% | viability, T/C [18]: 28.8% | viability, T/C [19]: 34.2% | viability, T/C [20]: 33.9% | viability, T/C [21]: 28.7% | viability, T/C [22]: 32.6% | viability, T/C [23]: 25.9% | viability, T/C [24]: 26.7% | viability, T/C [25]: 23.9% | viability, T/C [26]: 26.8% | viability, T/C [27]: 27.1% | viability, T/C [28]: 26.5% | viability, T/C [29]: 29.4% | viability, T/C [30]: 24.5% | viability, T/C [31]: 20.1% | viability, T/C [32]: 19.1% | viability, T/C [33]: 19.5% | viability, T/C [34]: 19.3% | viability, T/C [35]: 18.2% | viability, T/C [36]: 15.3%

CCC(CC)c1cc(NC2CCC(N)C2)n2nccc2n1 (stereo not given) + C#Cc1c(F)ccc2cc(O)cc(-c3ncc4c(N5CC6CCC(C5)N6)nc(OCC56CCCN5CC(F)C6)nc4c3F)c12
IC50 (second compound 0.0316 µM): 1800 nM | IC50 (second compound 0.1 µM): 1780 nM | IC50 (second compound 0.316 µM): 1710 nM | IC50 (second compound 1 µM): 1620 nM | IC50 (second compound 3.16 µM): 1050 nM | IC50 (second compound 10 µM): < 31.6 nM | viability, T/C [1]: 108% | viability, T/C [2]: 126% | viability, T/C [3]: 109% | viability, T/C [4]: 98.1% | viability, T/C [5]: 3.47% | viability, T/C [6]: 3.41% | viability, T/C [7]: 99.1% | viability, T/C [8]: 98.2% | viability, T/C [9]: 109% | viability, T/C [10]: 97.4% | viability, T/C [11]: 2.92% | viability, T/C [12]: 2.14% | viability, T/C [13]: 97.1% | viability, T/C [14]: 103% | viability, T/C [15]: 107% | viability, T/C [16]: 91.1% | viability, T/C [17]: 3.17% | viability, T/C [18]: 3.38% | viability, T/C [19]: 74.2% | viability, T/C [20]: 83.7% | viability, T/C [21]: 85.7% | viability, T/C [22]: 90.2% | viability, T/C [23]: 3.62% | viability, T/C [24]: 2.6% | viability, T/C [25]: 43.4% | viability, T/C [26]: 46.1% | viability, T/C [27]: 50.1% | viability, T/C [28]: 68.2% | viability, T/C [29]: 3.28% | viability, T/C [30]: 2.71% | viability, T/C [31]: 15.4% | viability, T/C [32]: 18.1% | viability, T/C [33]: 24.3% | viability, T/C [34]: 33.3% | viability, T/C [35]: 2.78% | viability, T/C [36]: 2.37%

Cc1nc(N2CCC3(CC2)COC(C)C3N)c(CO)nc1Sc1ccnc(N)c1Cl (stereo not given) + C#Cc1c(F)ccc2cc(O)cc(-c3ncc4c(N5CC6CCC(C5)N6)nc(OCC56CCCN5CC(F)C6)nc4c3F)c12
IC50 (second compound 0.0316 µM): 103 nM | IC50 (second compound 0.1 µM): 104 nM | IC50 (second compound 0.316 µM): 49.5 nM | IC50 (second compound 1 µM): < 31.6 nM | IC50 (second compound 3.16 µM): < 31.6 nM | IC50 (second compound 10 µM): < 31.6 nM | viability, T/C [1]: 64.5% | viability, T/C [2]: 50.2% | viability, T/C [3]: 33.5% | viability, T/C [4]: 22.3% | viability, T/C [5]: 19% | viability, T/C [6]: 17.5% | viability, T/C [7]: 59.5% | viability, T/C [8]: 51.5% | viability, T/C [9]: 29.6% | viability, T/C [10]: 20% | viability, T/C [11]: 14.9% | viability, T/C [12]: 14% | viability, T/C [13]: 54.6% | viability, T/C [14]: 42.8% | viability, T/C [15]: 21.3% | viability, T/C [16]: 13.1% | viability, T/C [17]: 11.4% | viability, T/C [18]: 10.8% | viability, T/C [19]: 41.6% | viability, T/C [20]: 25.7% | viability, T/C [21]: 15.7% | viability, T/C [22]: 7.73% | viability, T/C [23]: 8.67% | viability, T/C [24]: 8.04% | viability, T/C [25]: 24.1% | viability, T/C [26]: 13.5% | viability, T/C [27]: 11% | viability, T/C [28]: 7.3% | viability, T/C [29]: 6.6% | viability, T/C [30]: 5.45% | viability, T/C [31]: 10.5% | viability, T/C [32]: 8.85% | viability, T/C [33]: 6.18% | viability, T/C [34]: 5.37% | viability, T/C [35]: 3.83% | viability, T/C [36]: 3.85%

NC1c2ccccc2OC12CCN(c1cnc3c(N4CCCc5ncccc54)n[nH]c3n1)CC2 (stereo not given) + C#Cc1c(F)ccc2cc(O)cc(-c3ncc4c(N5CC6CCC(C5)N6)nc(OCC56CCCN5CC(F)C6)nc4c3F)c12
IC50 (second compound 0.0316 µM): < 31.6 nM | IC50 (second compound 0.1 µM): < 31.6 nM | IC50 (second compound 0.316 µM): < 31.6 nM | IC50 (second compound 1 µM): < 31.6 nM | IC50 (second compound 3.16 µM): < 31.6 nM | IC50 (second compound 10 µM): < 31.6 nM | viability, T/C [1]: 34.9% | viability, T/C [2]: 25.9% | viability, T/C [3]: 18.1% | viability, T/C [4]: 14.8% | viability, T/C [5]: 17.4% | viability, T/C [6]: 15.8% | viability, T/C [7]: 36.4% | viability, T/C [8]: 23.2% | viability, T/C [9]: 16.8% | viability, T/C [10]: 13.9% | viability, T/C [11]: 12.5% | viability, T/C [12]: 12.4% | viability, T/C [13]: 28.2% | viability, T/C [14]: 18.1% | viability, T/C [15]: 11.8% | viability, T/C [16]: 8.85% | viability, T/C [17]: 10.4% | viability, T/C [18]: 8.35% | viability, T/C [19]: 17.7% | viability, T/C [20]: 11.2% | viability, T/C [21]: 8.78% | viability, T/C [22]: 7.65% | viability, T/C [23]: 5.83% | viability, T/C [24]: 5.6% | viability, T/C [25]: 9.96% | viability, T/C [26]: 7.32% | viability, T/C [27]: 5.29% | viability, T/C [28]: 4.36% | viability, T/C [29]: 4.13% | viability, T/C [30]: 5.5% | viability, T/C [31]: 7.06% | viability, T/C [32]: 4.42% | viability, T/C [33]: 3.79% | viability, T/C [34]: 3.47% | viability, T/C [35]: 4% | viability, T/C [36]: 4.4%

Nc1ccn(C2OC(CO)C(O)C2(F)F)c(=O)n1 (stereo not given) + C#Cc1c(F)ccc2cc(O)cc(-c3ncc4c(N5CC6CCC(C5)N6)nc(OCC56CCCN5CC(F)C6)nc4c3F)c12
IC50 (second compound 0.0316 µM): 83.3 nM | IC50 (second compound 0.1 µM): 93 nM | IC50 (second compound 0.316 µM): 70 nM | IC50 (second compound 1 µM): 45.5 nM | IC50 (second compound 3.16 µM): < 3.16 nM | IC50 (second compound 10 µM): < 3.16 nM | viability, T/C (second compound 0.0316 µM, first compound 0.00316 µM): 92.8% | viability, T/C (second compound 0.0316 µM, first compound 0.01 µM): 95% | viability, T/C [1]: 70% | viability, T/C [2]: 48.2% | viability, T/C [3]: 24.9% | viability, T/C [4]: 21.6% | viability, T/C (second compound 0.1 µM, first compound 0.00316 µM): 92.6% | viability, T/C (second compound 0.1 µM, first compound 0.01 µM): 96.6% | viability, T/C [7]: 70.8% | viability, T/C [8]: 50.7% | viability, T/C [9]: 26.6% | viability, T/C [10]: 19.6% | viability, T/C (second compound 0.316 µM, first compound 0.00316 µM): 90% | viability, T/C (second compound 0.316 µM, first compound 0.01 µM): 83.3% | viability, T/C [13]: 60.3% | viability, T/C [14]: 48.1% | viability, T/C [15]: 23.8% | viability, T/C [16]: 19.5% | viability, T/C (second compound 1 µM, first compound 0.00316 µM): 79.1% | viability, T/C (second compound 1 µM, first compound 0.01 µM): 69.5% | viability, T/C [19]: 54% | viability, T/C [20]: 40.9% | viability, T/C [21]: 22.7% | viability, T/C [22]: 15.7% | viability, T/C (second compound 3.16 µM, first compound 0.00316 µM): 41.3% | viability, T/C (second compound 3.16 µM, first compound 0.01 µM): 35.4% | viability, T/C [25]: 29.7% | viability, T/C [26]: 28.9% | viability, T/C [27]: 23.6% | viability, T/C [28]: 21.2% | viability, T/C (second compound 10 µM, first compound 0.00316 µM): 17.4% | viability, T/C (second compound 10 µM, first compound 0.01 µM): 17% | viability, T/C [31]: 16.8% | viability, T/C [32]: 13.6% | viability, T/C [33]: 15.5% | viability, T/C [34]: 14.5%
